Counter-ions that a name gives are not always drawn. Like-named read-outs stand apart in the source and are kept apart here.
Tests used:
[1] = system: human recombinant AChE-induced Aβ1-40 aggregation; experiment: AChE-induced Aβ1-40 aggregation inhibition assay (thioflavin T); settings: inhibitor 100 μM
Method: Aβ1-40, supplied as trifluoroacetate salt, was purchased from Bachem AG (Germany). Aβ1-40 (2 mg mL^−1) was dissolved in HFIP, lyophilized, and then resolubilized in DMSO to get a 2.3 mM Aβ1-40 solution. 1 mM Solutions of tested inhibitors were prepared by dissolution in MeOH.
Aliquots of 2 μL Aβ1-40 peptide were incubated for 24 h at room temperature in 0.215 M sodium phosphate buffer (pH 8.0) at a final concentration of 230 μM. […] The final volume of each vial was 20 μL. Each assay was run in duplicate. To quantify amyloid fibril formation, the thioflavin T fluorescence method was then applied (cf. H. Naiki et al., “Kinetic Analysis of Amyloid Fibril Polymerization in Vitro”, Lab. Invest. 1991, vol. 65, pp. 104-110). The fluorescence intensities due to β-sheet conformation were monitored for 300 s at λem=490 nm (λexc=446 nm). The percent inhibition of the AChE-induced aggregation due to the presence of the tested compound was calculated by the following expression: 100−(IFi/IFo×100) where IFi and IFe are the fluorescence intensities obtained for Aβ plus AChE in the presence and in the absence of inhibitor, respectively, minus the fluorescence intensities due to the respective blanks.

β-Secretase (BACE-1) = β-Secretase (BACE-1) (Homo sapiens (Human), UniProt P56817); experiment: β-Secretase (BACE-1) inhibition assay; assay type: biochemical
Method: β-Secretase (BACE-1, Sigma) inhibition studies were performed by employing a peptide mimicking APP sequence as substrate (methoxycoumarin-[…]dinitrophenyl, M-2420, Bachem). The following procedure was employed: 5 μL of test compound (or DMSO, if preparing a control well) were pre-incubated with 175 μL of the enzyme (in 20 mM sodium acetate containing CHAPS 0.1% w/v) for 1 h at room temperature. The substrate (3 μM, final concentration) was then added and left to react for 15 min. The fluorescence signal was read at λem=405 nm (λexc=320 nm). […] The fluorescence intensities with and without inhibitor were compared and the percent inhibition due to the presence of test compounds was calculated. The background signal was measured in control wells containing all the reagents, except BACE-1 and subtracted. […] Inhibition curves were obtained by plotting the % inhibition versus the logarithm of inhibitor concentration in the assay sample. The linear regression parameters were determined and the IC50 extrapolated (GraphPad Prism 4.0, GraphPad Software Inc.).

[2] = molecular target: Electrophorus electricus (ee) AChE (Electrophorus electricus (Electric eel) (Gymnotus electricus), UniProt O42275); experiment: AChE inhibition assay (Ellman), eeAChE; assay type: biochemical
Method: AChE inhibitory activity of compounds (Ia)-(Ie) and (−)-(Ib) and (+)-(Ib) was evaluated spectrophotometrically at 25° C. by the method of Ellman et al., using recombinant human AChE (hAChE) and Electrophorus electricus (ee) AChE and acetylthiocholine iodide as substrate (cf. G. L. Ellman et al., “New and Rapid Colorimetric Determination of Acetylcholinesterase Activity” Biochem. Pharmacol. 1961, vol. 7, pp. 88-95). For eeAChE inhibitory activity determination, the reaction took place in a final volume of 300 μL of 0.1 M phosphate-buffered solution pH 8.0, containing 0.03 unit/mL of ee AChE and 333 μM 5,5′-dithiobis(2-nitrobenzoic) acid (DTNB) solution used to produce the yellow anion of 5-thio-2-nitrobenzoic acid. Inhibition curves were performed in duplicates using at least 10 increasing concentrations of inhibitor and preincubating at 37° C. for 20 min. One duplicate sample without inhibitor was always present to yield 100% of AChE activity. Then, substrate acetylthiocholine (450 μM) was added and the reaction was developed at 37° C. for 5 min. The color production was measured at 414 nm.
(§1) Results are expressed as mean±S.E.M. of at least 4 experiments performed in duplicate. DTNB, acetylthiocholine, butyrylthiocholine, and enzymes were purchased from Sigma.

human serum BChE = human serum BChE (Homo sapiens (Human), UniProt P06276); experiment: BChE inhibition assay (Ellman); assay type: biochemical
Method: BChE inhibitory activity determinations were carried out similarly by the method of Ellman et al., using 0.02 unit/mL of human serum BChE and 300 μM butyrylthiocholine, instead of AChE and acetylthiocholine, in a final volume of 300 μL.
as §1

Aβ1-42 = Aβ1-42 (Homo sapiens, UniProt P05067); experiment: Aβ1-42 self-aggregation inhibition assay (thioflavin T); assay type: biochemical; settings: inhibitor 10 μM, [Aβ]/[I]=5/1
Method: As reported in a previously published protocol (cf. M. Bartolini et al., “Insight into the Kinetic of Amyloid Beta (1-42) Peptide Self-Aggregation: Elucidation of Inhibitors' Mechanism of Action. ChemBioChem 2007, vol. 8, pp. 2152-2161), HFIP pretreated Aβ1-42 samples (Bachem AG, Switzerland) were solubilized with a CH3CN/0.3 mM Na2CO3250 mM NaOH (48.4:48.4:3.2) mixture to obtain a 500 μM solution. Experiments were performed by incubating the peptide in 10 mM phosphate buffer (pH=8.0) containing 10 mM NaCl, at 30° C. for 24 h (final Aβ concentration 50 μM) with and without inhibitor (10 μM, Aβ/inhibitor=5/1). Blanks containing the tested inhibitors were also prepared and tested.

Sequence of Electrophorus electricus (ee) AChE (O42275 whole entry, looked up): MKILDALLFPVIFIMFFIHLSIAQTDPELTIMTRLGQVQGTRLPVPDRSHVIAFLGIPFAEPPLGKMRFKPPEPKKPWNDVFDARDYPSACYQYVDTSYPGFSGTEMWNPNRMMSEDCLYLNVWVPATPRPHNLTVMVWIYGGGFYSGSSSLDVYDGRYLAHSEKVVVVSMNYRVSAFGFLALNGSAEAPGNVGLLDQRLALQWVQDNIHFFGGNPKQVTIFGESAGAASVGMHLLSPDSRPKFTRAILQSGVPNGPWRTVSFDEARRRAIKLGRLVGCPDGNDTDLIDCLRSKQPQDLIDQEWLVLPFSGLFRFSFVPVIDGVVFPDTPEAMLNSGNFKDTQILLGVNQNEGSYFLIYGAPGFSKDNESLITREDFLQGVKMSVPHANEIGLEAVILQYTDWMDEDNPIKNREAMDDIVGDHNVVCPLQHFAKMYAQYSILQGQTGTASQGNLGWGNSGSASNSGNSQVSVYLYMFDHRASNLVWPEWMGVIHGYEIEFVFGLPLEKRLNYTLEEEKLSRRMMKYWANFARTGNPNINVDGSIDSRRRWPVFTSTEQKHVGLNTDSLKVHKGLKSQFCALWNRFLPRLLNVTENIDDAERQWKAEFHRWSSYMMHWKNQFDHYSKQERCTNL
Sequence of β-Secretase (BACE-1) (P56817 46-501): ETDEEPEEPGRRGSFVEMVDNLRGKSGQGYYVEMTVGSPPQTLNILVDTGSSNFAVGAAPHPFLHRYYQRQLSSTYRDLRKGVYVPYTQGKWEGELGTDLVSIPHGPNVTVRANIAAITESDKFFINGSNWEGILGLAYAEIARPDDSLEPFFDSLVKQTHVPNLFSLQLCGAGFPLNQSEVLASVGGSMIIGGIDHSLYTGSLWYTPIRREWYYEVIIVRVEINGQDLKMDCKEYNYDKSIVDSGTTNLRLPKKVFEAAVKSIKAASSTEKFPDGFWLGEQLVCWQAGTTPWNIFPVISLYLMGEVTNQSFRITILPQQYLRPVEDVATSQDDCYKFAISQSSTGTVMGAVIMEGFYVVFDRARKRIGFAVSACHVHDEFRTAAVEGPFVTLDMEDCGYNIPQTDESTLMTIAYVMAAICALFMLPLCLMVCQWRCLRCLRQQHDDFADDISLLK
Sequence of human serum BChE (P06276 29-602): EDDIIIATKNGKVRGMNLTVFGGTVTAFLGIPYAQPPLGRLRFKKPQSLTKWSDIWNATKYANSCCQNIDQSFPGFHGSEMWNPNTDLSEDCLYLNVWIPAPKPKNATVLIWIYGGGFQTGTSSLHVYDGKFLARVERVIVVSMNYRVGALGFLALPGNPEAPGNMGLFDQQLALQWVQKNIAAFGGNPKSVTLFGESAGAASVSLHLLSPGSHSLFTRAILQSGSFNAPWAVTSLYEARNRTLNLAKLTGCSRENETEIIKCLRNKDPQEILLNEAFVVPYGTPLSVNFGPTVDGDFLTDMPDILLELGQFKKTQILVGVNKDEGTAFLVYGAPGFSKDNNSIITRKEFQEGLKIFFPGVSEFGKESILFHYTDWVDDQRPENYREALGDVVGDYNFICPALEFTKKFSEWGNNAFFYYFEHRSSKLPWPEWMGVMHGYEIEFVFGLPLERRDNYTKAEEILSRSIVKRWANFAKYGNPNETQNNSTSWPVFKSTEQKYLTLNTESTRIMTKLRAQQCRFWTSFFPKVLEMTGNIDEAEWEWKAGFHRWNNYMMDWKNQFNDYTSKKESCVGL

Row | Compound | AChE-induced Aβ1-40 aggregation (%) [1] [%] | IC50 (β-Secretase (BACE-1)) [nM] | IC50 [2] [nM] | IC50 (human serum BChE) [nM] | Aβ1-42 self-induced aggregation (%) (Aβ1-42) | IC50 ([2]; read-out: IC50 eeAChE) [nM] | IC50 (β-Secretase (BACE-1); read-out: BACE-1 IC50) [nM] | IC50 (human serum BChE; read-out: IC50 hBChE) [nM] | BACE-1 % inhibition at 5 μM (β-Secretase (BACE-1); 5 μM)
1 | CC1=CC2Cc3nc4cc(Cl)ccc4c(NCCCCCCCCNC(=O)c4cc(O)c5c(c4)C(=O)c4cccc(O)c4C5=O)c3C(C1)C2 (racemic) [(±)-(Ia)•HCl, (±)-N-{8-[(3-chloro-6,7,10,11-tetrahydro-9-methyl-7,11-methanocycloocta[b]quinolin-12-yl)amino]octyl}-9,10-dihydro-4,5-dihydroxy-9,10-dioxoanthracene-2-carboxamide] | 44.7 ± 8.4 | 980 ± 200 | 88.6 ± 6.7 | 350 ± 17 | 33.1 ± 5.4 |  |  |  | 
2 | CC1=CC2Cc3nc4cc(Cl)ccc4c(NCCCCCCCCCNC(=O)c4cc(O)c5c(c4)C(=O)c4cccc(O)c4C5=O)c3C(C1)C2 (racemic) [(±)-(Ib)•HCl, (±)-N-{9-[(3-chloro-6,7,10,11-tetrahydro-9-methyl-7,11-methanocycloocta[b]quinolin-12-yl)amino]nonyl}-9,10-dihydro-4,5-dihydroxy-9,10-dioxoanthracene-2-carboxamide] | 48.7 ± 8.4 | 120 ± 100 | 32.6 ± 1.7 |  | 38.0 ± 4.6 |  |  |  | 
3 | CC1=CC2Cc3nc4cc(Cl)ccc4c(NCCCCCCCCCCNC(=O)c4cc(O)c5c(c4)C(=O)c4cccc(O)c4C5=O)c3C(C1)C2 (racemic) [(±)-(Ic)•HCl, (±)-N-{10-[(3-chloro-6,7,10,11-tetrahydro-9-methyl-7,11-methanocycloocta[b]quinolin-12-yl)amino]decyl}-9,10-dihydro-4,5-dihydroxy-9,10-dioxoanthracene-2-carboxamide] | 29.2 ± 2.4 | 1190 ± 200 | 46.7 ± 2.4 | 1100 ± 40 | 40.9 ± 4.4 |  |  |  | 
4 | CC1=CC2Cc3nc4cc(Cl)ccc4c(NCCCCCCCCCCCNC(=O)c4cc(O)c5c(c4)C(=O)c4cccc(O)c4C5=O)c3C(C1)C2 (racemic) [(±)-(Id)•HCl, (±)-N-{11-[(3-chloro-6,7,10,11-tetrahydro-9-methyl-7,11-methanocycloocta[b]quinolin-12-yl)amino]undecyl}-9,10-dihydro-4,5-dihydroxy-9,10-dioxoanthracene-2-carboxamide] | 38.2 ± 2.6 | 1200 ± 100 |  | 645 ± 67 | 35.3 ± 4.0 | 16.3 ± 2.3 |  |  | 
5 | CC1=CC2Cc3nc4cc(Cl)ccc4c(NCc4ccc(CNC(=O)c5cc(O)c6c(c5)C(=O)c5cccc(O)c5C6=O)cc4)c3C(C1)C2 (racemic) [(±)-(Ie)•HCl, (±)-N-{4-{[(3-chloro-6,7,10,11-tetrahydro-9-methyl-7,11-methanocycloocta[b]quinolin-12-yl)amino]methyl}benzyl}-9,10-dihydro-4,5-dihydroxy-9,10-dioxoanthracene-2-carboxamide] | 35.2 ± 1.8 | 2020 ± 400 |  | 510 ± 20 | 32.4 ± 3.6 | 60 ± 7.5 |  |  | 
6 | CC1=C[C@@H]2Cc3nc4cc(Cl)ccc4c(N)c3[C@H](C1)C2.Cl [(+)-Huprine Y•HCl, huprine Y, reference compound] | 9.1 ± 3.6 |  |  |  | 13.2 ± 1.9 | 373 ± 50 | > 5000 | 170 ± 17 | 
7 | CC1=C[C@@H]2Cc3nc4cc(Cl)ccc4c(N)c3[C@H](C1)C2.Cl [(−)-Huprine Y•HCl, huprine Y, reference compound] | 24.7 ± 1.3 |  |  |  | 11.5 ± 5.2 | 0.06 ± 0.01 | > 5000 | 222 ± 17 | (14.0 ± 0.1% at
8 | O=C(O)c1cc(O)c2c(c1)C(=O)c1cccc(O)c1C2=O [Rhein, rhein, reference compound] |  |  | 637 ± 87 |  |  |  |  | 17000 ± 4220 | 
9 | huprine Y [(±)-Huprine Y•HCl, reference compound] | 17.1 ± 4.5 |  |  |  |  | 0.08 ± 0.01 |  |  | 
